Data: PMC9499365, “Stereoselective Synthesis and Application of Gibberellic Acid-Derived Aminodiols” (International Journal of Molecular Sciences, 2022)

Experiments:
[1] = system: HeLa cells (cervical cancer); experiment: MTT antiproliferative assay, HeLa; assay type: cell-based, human; details: Homo sapiens, 72 h, read-out: Growth inhibition (%) ± SEM
Description: (§1) The in vitro antiproliferative activities of the synthesized aminodiols 4–38 against a panel of different human cancer cell lines of gynecological origin, including cervical (SiHA and HeLa), breast (MCF7 and MDA-MB-231), and ovary (A2780) cancers were assayed by the MTT method. […] Cisplatin, a clinically applied anticancer agent, was used as a reference compound and the results are summarized in Figure 3 and Table S1 in Supporting Information. […] On the other hand, none of the prepared azole derivatives exerted relevant activity.
(§2) The growth-inhibitory effects of the gibberellic acid-based aminodiol derivatives were determined by a standard MTT (3-(4,5-dimethylthiazol-2-yl)-2,5-diphenyltetrazolium bromide) assay on a panel containing five cell lines, including Hela and Siha (cervical cancers); MDA-MB-231 and MCF-7 (breast cancers); and A2780 ovarian cancer cells. The most promising agents were additionally tested against NIH/3T3 mouse embryo fibroblast cells. All cell lines were purchased from the European Collection of Cell Cultures (Salisbury, UK) except SiHa, which was obtained from the American Tissue Culture Collection (Manassas, VA, USA). The cells were maintained in minimal essential medium supplemented with 10% fetal bovine serum, 1% non-essential amino acids, and 1% penicillin-streptomycin at 37 °C in a humidified atmosphere containing 5% CO2. All media and supplements were obtained from Lonza Group Ltd., (Basel, Switzerland). Cancer cells were seeded into 96-well plates (5000 cells/well), after an overnight incubation the test compound was added in 2 different concentrations (10 µM and 30 µM) and incubated for another 72 h under cell-culturing conditions. Then, 20 μL of 5 mg/mL MTT solution was added to each well and incubated for a further 4 h. The medium was removed, and the precipitated formazan crystals were dissolved in DMSO during 60 min of shaking at 37 °C. As the final step, the absorbance was measured at 545 nm by using a microplate reader (SPECTROStar Nano, BMG Labtech, Offenburg, Germany). Untreated cells were included as controls. […] These agents were additionally tested against NIH/3T3 fibroblasts to obtain results about their cancer selectivity. Two independent experiments were performed with five wells for each condition. Cisplatin (Ebewe GmbH, Unterach, Austria), a clinically used anticancer agent, was used as a positive control. Calculations were performed utilizing the GraphPad Prism 5.01 software (GraphPad Software Inc., San Diego, CA, USA).

[2] = system: SiHa cells (cervical cancer); experiment: MTT antiproliferative assay, SiHa; assay type: cell-based, human; details: Homo sapiens, 72 h, read-out: Growth inhibition (%) ± SEM
Description: as §1, §2

[3] = system: MDA-MB-231 cells (breast cancer); experiment: MTT antiproliferative assay, MDA-MB-231; assay type: cell-based, human; details: Homo sapiens, 72 h, read-out: Growth inhibition (%) ± SEM; for inhibition at 10 µM: MDA-MB-231, 10 μM; for inhibition at 30 µM: MDA-MB-231, 30 μM
Description: as §1, §2

[4] = system: A2780 ovarian cancer cells; experiment: MTT antiproliferative assay, A2780; assay type: cell-based, human; details: Homo sapiens, 72 h, read-out: Growth inhibition (%) ± SEM; for inhibition at 10 µM: A2780, 10 μM; for inhibition at 30 µM: A2780, 30 μM
Description: as §1, §2

For `C#CCNC[C@@]1(O)C[C@]23C[C@@]1(O)CC[C@@H]2c1cccc(C)c1[C@@H]3C(=O)OCC` [Compound 20, Ethyl (4bS,7S,8S,9aR,10R)-7,8-dihydroxy-1-methyl-8-((prop-2-yn-1-ylamino)methyl)-4b,6,7,8,9,10-hexahydro-5H-7,9a-methanobenzo[a]azulene-10-carboxylate], the melting point was 111 to 112 °C.

Work on `CCOC(=O)[C@H]1c2c(C)cccc2[C@H]2CC[C@]3(O)C[C@@]21C[C@]3(O)CNCc1ccccc1` [Compound 4, Ethyl (4bS,7S,8S,9aR,10R)-8-((benzylamino)methyl)-7,8-dihydroxy-1-methyl-4b,6,7,8,9,10-hexahydro-5H-7,9a-methanobenzo[a]azulene-10-carboxylate] yielded an inhibition at 10 µM [1] of 26.9 ± 1.55%, an inhibition at 30 µM [1] of 25.9 ± 3.2% and an inhibition at 10 µM [2] of 23.3 ± 0.63%. For the same compound, the inhibition at 30 µM [2] was 57 ± 1.16%, the inhibition at 10 µM [3] was < 20% and the inhibition at 30 µM [3] was 31.6 ± 1.49%. The inhibition at 10 µM [4] was < 20%, the inhibition at 30 µM [4] was 49.9 ± 1.76% and the melting point was 97 to 99 °C.

In the case of `CCOC(=O)[C@H]1c2c(C)cccc2[C@H]2CC[C@]3(O)C[C@@]21C[C@]3(O)CN(Cc1ccccc1)Cc1ccccc1` [Compound 17, Ethyl (4bS,7S,8S,9aR,10R)-8-((dibenzylamino)methyl)-7,8-dihydroxy-1-methyl-4b,6,7,8,9,10-hexahydro-5H-7,9a-methanobenzo[a]azulene-10-carboxylate], the inhibition at 10 µM [1] is reported as 40.8 ± 1.19%, the inhibition at 30 µM [1] is reported as 45.6 ± 1.48% and the inhibition at 10 µM [2] is reported as < 20%. The inhibition at 30 µM [2] was 47.1 ± 1.74%, the inhibition at 10 µM [3] was < 20% and the inhibition at 30 µM [3] was 36.9 ± 1.58%. For the same compound, the inhibition at 10 µM [4] was < 20%, the inhibition at 30 µM [4] was 78.9 ± 1.12% and the melting point was 101.4 to 103 °C.

For `CCOC(=O)[C@H]1c2c(C)cccc2[C@H]2CC[C@]3(O)C[C@@]21C[C@]3(O)Cn1cncn1` [Compound 28, Ethyl (4bS,7S,8S,9aR,10R)-8-((1H-1,2,4-triazol-1-yl)methyl)-7,8-dihydroxy-1-methyl-4b,6,7,8,9,10-hexahydro-5H-7,9a-methanobenzo[a]azulene-10-carboxylate], the melting point was 87 to 89 °C.

For `CCOC(=O)[C@H]1c2c(C)cccc2[C@H]2CC[C@]3(O)C[C@@]21C[C@]3(O)CNCc1cccc2ccccc12` [Compound 15, Ethyl (4bS,7S,8S,9aR,10R)-7,8-dihydroxy-1-methyl-8-(((naphthalen-1-ylmethyl)amino)methyl)-4b,6,7,8,9,10-hexahydro-5H-7,9a-methanobenzo[a]azulene-10-carboxylate], the inhibition at 10 µM [1] was 28.2 ± 0.88%, the inhibition at 30 µM [1] was 96.7 ± 1.54% and the inhibition at 10 µM [2] was 28.61 ± 0.15%. The inhibition at 30 µM [2] was 97.95 ± 0.63%, the inhibition at 10 µM [3] was < 20% and the inhibition at 30 µM [3] was 95.96 ± 0.69%. The inhibition at 10 µM [4] was 21.9 ± 1.5%, the inhibition at 30 µM [4] was 95.48 ± 0.65% and the melting point was 71 to 74 °C.

Compound `CCOC(=O)[C@@H]1c2c(C)cccc2C2CC[C@]3(O)C[C@@]21C[C@]3(O)CN[C@@H](C)c1cccc2ccccc12` (stereo partly drawn) [Compound 36, Ethyl (7S,8S,9aR,10S)-7,8-dihydroxy-1-methyl-8-((((S)-1-(naphthalen-1-yl)ethyl)amino)methyl)-4b,6,7,8,9,10-hexahydro-5H-7,9a-methanobenzo[a]azulene-10-carboxylate] has an inhibition at 10 µM [1] of 31.1 ± 2.01%, an inhibition at 30 µM [1] of 95.4 ± 2.87% and an inhibition at 10 µM [2] of 31.4 ± 1.21%. For the same compound, the inhibition at 30 µM [2] was 97.69 ± 0.58%, the inhibition at 10 µM [3] was 46.9 ± 1.05% and the inhibition at 30 µM [3] was 95.53 ± 0.83%. The inhibition at 10 µM [4] was 46.7 ± 1.46% and the inhibition at 30 µM [4] was 94.81 ± 0.11%.

`CCOC(=O)[C@@H]1c2c(C)cccc2C2CC[C@]3(O)C[C@@]21C[C@]3(O)CNCc1cccc2ccccc12` (stereo partly drawn) [Compound 38, Ethyl (7S,8S,9aR,10S)-7,8-dihydroxy-1-methyl-8-(((naphthalen-1-ylmethyl)amino)methyl)-4b,6,7,8,9,10-hexahydro-5H-7,9a-methanobenzo[a]azulene-10-carboxylate] gave an inhibition at 10 µM [1] of 26.9 ± 0.53%, an inhibition at 30 µM [1] of 96.5 ± 1.72% and an inhibition at 10 µM [2] of 27.9 ± 0.93%. The inhibition at 30 µM [2] was 97.63 ± 0.8%, the inhibition at 10 µM [3] was < 20% and the inhibition at 30 µM [3] was 96.17 ± 0.76%. The inhibition at 10 µM [4] was 28.6 ± 2.66%, the inhibition at 30 µM [4] was 95.23 ± 0.66% and the melting point was 61 to 65 °C.

For `CCOC(=O)[C@H]1c2c(C)cccc2[C@H]2CC[C@]3(O)C[C@@]21C[C@]3(O)CN[C@H](C)c1ccccc1` [Compound 6, Ethyl (4bS,7S,8S,9aR,10R)-7,8-dihydroxy-1-methyl-8-((((R)-1-phenylethyl)amino)methyl)-4b,6,7,8,9,10-hexahydro-5H-7,9a-methanobenzo[a]azulene-10-carboxylate], the inhibition at 10 µM [1] was 21.4 ± 1.7%, the inhibition at 30 µM [1] was 63.1 ± 1.81% and the inhibition at 10 µM [2] was < 20%. The inhibition at 30 µM [2] was 65.9 ± 2.48%, the inhibition at 10 µM [3] was < 20% and the inhibition at 30 µM [3] was 85.1 ± 1.38%. For the same compound, the inhibition at 10 µM [4] was 25.3 ± 0.27%, the inhibition at 30 µM [4] was 61.9 ± 1.25% and the melting point was 104 to 105 °C.

Work on `CCOC(=O)[C@H]1c2c(C)cccc2[C@H]2CC[C@]3(O)C[C@@]21C[C@]3(O)CNC(C)C` [Compound 19, Ethyl (4bS,7S,8S,9aR,10R)-7,8-dihydroxy-8-((isopropylamino)methyl)-1-methyl-4b,6,7,8,9,10-hexahydro-5H-7,9a-methanobenzo[a]azulene-10-carboxylate] yielded a melting point of 102 to 103 °C.

In the case of `CCOC(=O)[C@H]1c2c(C)cccc2[C@H]2CC[C@]3(O)C[C@@]21C[C@]3(O)CNCc1ccc(OC)cc1` [Compound 11, Ethyl (4bS,7S,8S,9aR,10R)-7,8-dihydroxy-8-(((4-methoxybenzyl)amino)methyl)-1-methyl-4b,6,7,8,9,10-hexahydro-5H-7,9a-methanobenzo[a]azulene-10-carboxylate], the inhibition at 10 µM [1] is reported as < 20%, the inhibition at 30 µM [1] is reported as 60.8 ± 2.44% and the inhibition at 10 µM [2] is reported as 30.7 ± 0.82%. For the same compound, the inhibition at 30 µM [2] was 53.7 ± 0.76%, the inhibition at 10 µM [3] was < 20% and the inhibition at 30 µM [3] was 78.7 ± 1.47%. For the same compound, the inhibition at 10 µM [4] was 31.7 ± 2.82%, the inhibition at 30 µM [4] was 53.4 ± 1.68% and the melting point was 224 to 225 °C.

With `CCOC(=O)[C@H]1c2c(C)cccc2[C@H]2CC[C@]3(O)C[C@@]21C[C@]3(O)Cn1ccnn1` [Compound 29, Ethyl (4bS,7S,8S,9aR,10R)-8-((1H-1,2,3-triazol-1-yl)methyl)-7,8-dihydroxy-1-methyl-4b,6,7,8,9,10-hexahydro-5H-7,9a-methanobenzo[a]azulene-10-carboxylate] the melting point was 90 to 92 °C.

In the case of `CCOC(=O)[C@@H]1c2c(C)cccc2C2CC[C@]3(O)C[C@@]21C[C@]3(O)CN[C@H](C)c1cccc2ccccc12` (stereo partly drawn) [Compound 37, Ethyl (7S,8S,9aR,10S)-7,8-dihydroxy-1-methyl-8-((((R)-1-(naphthalen-1-yl)ethyl)amino)methyl)-4b,6,7,8,9,10-hexahydro-5H-7,9a-methanobenzo[a]azulene-10-carboxylate], the inhibition at 10 µM [1] is reported as 35.8 ± 0.42%, the inhibition at 30 µM [1] is reported as 97.35 ± 0.69% and the inhibition at 10 µM [2] is reported as 34.5 ± 1.89%. The inhibition at 30 µM [2] was 97.58 ± 0.47%, the inhibition at 10 µM [3] was < 20% and the inhibition at 30 µM [3] was 96.64 ± 0.17%. For the same compound, the inhibition at 10 µM [4] was 35.9 ± 0.89% and the inhibition at 30 µM [4] was 96 ± 0.99%.

In the case of `CCOC(=O)[C@H]1c2c(C)cccc2[C@H]2CC[C@]3(O)C[C@@]21C[C@]3(O)CN1CCCCC1` [Compound 21, Ethyl (4bS,7S,8S,9aR,10R)-7,8-dihydroxy-1-methyl-8-(piperidin-1-ylmethyl)-4b,6,7,8,9,10-hexahydro-5H-7,9a-methanobenzo[a]azulene-10-carboxylate], the melting point is reported as 84 to 86 °C.

In the case of `CCOC(=O)[C@H]1c2c(C)cccc2[C@H]2CC[C@]3(O)C[C@@]21C[C@]3(O)CN[C@@H](C)c1ccccc1` [Compound 5, Ethyl (4bS,7S,8S,9aR,10R)-7,8-dihydroxy-1-methyl-8-((((S)-1-phenylethyl)amino)methyl)-4b,6,7,8,9,10-hexahydro-5H-7,9a-methanobenzo[a]azulene-10 carboxylate], the inhibition at 10 µM [1] is reported as 22.3 ± 5.01%, the inhibition at 30 µM [1] is reported as 51 ± 9.48% and the inhibition at 10 µM [2] is reported as < 20%. For the same compound, the inhibition at 30 µM [2] was 48.3 ± 4.04%, the inhibition at 10 µM [3] was < 20% and the inhibition at 30 µM [3] was 64.9 ± 1.91%. The inhibition at 10 µM [4] was 30.42 ± 0.22% and the inhibition at 30 µM [4] was 51.6 ± 2.69%.

`CCOC(=O)[C@H]1c2c(C)cccc2[C@H]2CC[C@]3(O)C[C@@]21C[C@]3(O)CN1CCN(C)CC1` [Compound 22, Ethyl (4bS,7S,8S,9aR,10R)-7,8-dihydroxy-1-methyl-8-((4-methylpiperazin-1-yl)methyl)-4b,6,7,8,9,10-hexahydro-5H-7,9a-methanobenzo[a]azulene-10-carboxylate] gave a melting point of 42 to 45 °C.
